Assay results: patent US20080004561A1, “Method for Treating Oncological, Virulent and Somatic Diseases, Method for Controlling Treatment Efficiency, Pharmaceutical Agents and Composition for Carrying Out Said Treatment” (priority 2005, published 2008)

Assays:
[1] = tested on: Escherichia coli ATCC25922; assay: Influence of DNase on bacterial biofilm formation on glass (Example 4); assay type: cell-based
Method: (§1) For estimation of possible mechanisms of DNase action on bacteria' interactions with host's organism we have estimated its influence on biofilm formation.
(§2) Experiments were performed on biofilm models, received at laboratory cultivation on the surface of glass. Non-relative Gram-positive (Staphylococcus aureus VT-209) and Gram-negative (Escherichia coli ATCC25922) bacteria were used.
(§3) Bacteria were sowed at 10^9 bacteria/ml concentrations and were incubated at 37° C. during 72 hours on synthetic M9 media that contains additives necessary for used bacteria strains. DNase was added in amount of 100 mkg/ml right after bacteria' inoculation. Identical volume of phosphate buffer was added to control. Selective vials were taken for analysis every 24 hours.
(§4) Glasses were washed by PBS buffer, fixed, stained with methylene blue and studied with the use of light microscopy.

[2] = tested on: Staphylococcus aureus VT-209; assay: as above; assay type: cell-based
Method: as §1, §2, §3, §4

[3] = DNase 100 mkg/ml added right after inoculation, 37° C., 72 hours, M9 media, light microscopy
[4] = DNase 100 mkg/ml, control sowings from vials

Which results are given for DNase?
Biofilm formation [1, 3]: normal biofilm was not formed; Colony-forming units (CFU) in comparison with controls [1, 4]: no death of cells; Biofilm formation [2, 3]: normal biofilm was not formed; Colony-forming units (CFU) in comparison with controls [2, 4]: no death of cells
